Assays:
Type in all cases: in vivo, rice (Nipponbare)
Settings in all cases: mRNA in rice leaf sheaths after hormone treatment, Northern blotting (FIG. 2)
OsTUB7 = test: Northern blotting of hormone specificity in rice leaf sheaths, OsTUB7
Protocol: (§1) After treatment with each hormone, Northern blotting using specific probes was performed to confirm the mRNA expression in rice leaf sheaths. C: No treatment; GA: gibberellin; BL: brassinolide; ABA: abscisic acid; IAA: auxin; BA: cytokinin.
(§2) Rice (variety: Nipponbare) was grown under conditions of 600 μmol/m^2s white fluorescent light at 25° C., 75% humidity, and under a twelve-hour day/night cycle. Commercially available high-grade gibberellin (GA3), brassinolide (BL), auxin (IAA), cytokinin (BA), and abscisic acid (ABA) were used. RNA for RNA blotting analysis was extracted using Chomczynski and Sacchi's method (Chomczynski, P. and Sacchi, N., 1987, Anal. Biochem., 162: 156-159). An oligotex-dT-30 mRNA purification kit (Takara) was used to prepare mRNA for microarray analysis.
(§3) Primers were constructed specifically for eight types of β-tubulin, respectively. PCR was carried out using each β-tubulin EST clone as a template, and using a T3 primer and a primer specific to the 3′-untranslated region of each β-tubulin. […]
(§4) About 0.5 g of tissue samples rapid frozen in liquid nitrogen was ground to a powder using a mortar and a pastle, and total RNA was prepared by the methods of Chomczynski and Sacchi (Chomczynski, P. and Sacchi, N., 1987, Anal. Biochem., 162: 156-159). […] The expression amount was analyzed using image analysis apparatus (Amersham Pharmacia Biotech).

OsTUB5 = test: Northern blotting of hormone specificity in rice leaf sheaths, OsTUB5
Protocol: as §1, §2, §3, §4

OsTUB6 = test: Northern blotting of hormone specificity in rice leaf sheaths, OsTUB6
Protocol: as §1, §2, §3, §4

[1] = system: eight types of tubulin (β-tubulin mRNA expression in rice leaf sheaths); test: Northern blotting of hormone specificity in rice leaf sheaths, all eight β-tubulins
Protocol: as §1, §2, §3, §4

CC(C)[C@H](C)[C@@H](O)[C@H](O)[C@@H](C)[C@H]1CC[C@H]2[C@@H]3COC(=O)[C@H]4C[C@H](O)[C@H](O)C[C@]4(C)[C@H]3CC[C@]12C [brassinolide]
expression of OsTUB7 (OsTUB7): increased | expression of OsTUB5 (OsTUB5): increased | expression of OsTUB6 (OsTUB6): increased

gibberellin
expression of OsTUB7 (OsTUB7): markedly increased | expression of OsTUB5 (OsTUB5): markedly increased | expression of OsTUB6 (OsTUB6): markedly increased

CC1=CC(=O)CC(C)(C)[C@@]1(O)/C=C/C(C)=C\C(=O)O [abscisic acid]
expression of all eight types of tubulin [1]: suppressed
